Measurements published in patent publication US20230310428A1, “EGFR INHIBITOR AND PREPARATION METHOD AND USE THEREOF” (HONGYUN BIOTECH CO., LTD., priority 2020, published 2023).
Where two headings read alike, the source gives them in different places.

Tests used:
Experiment in all cases: Growth inhibitory activity of compounds on BaF3 cell lines stably transfected with kinase (MTS, 48 h)
Type in all cases: cell-based
[1] = target: T1, various mutants of kinase EGFR (BaF3 cell lines stably transfected with kinase) (Homo sapiens, UniProt P00533, L858R)
T1 construct: expressed in transfected cells; host or cells: BaF3
In short: (§1)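 Cells in DMEM or RPMI 1640 with 10% FBS were exposed to compound at 8 concentrations (top 10 µM, 1/3 steps, 0.1% DMSO) for 48 h at 37 °C, 5% CO2. MTS/PES was then added for 1-4 h and OD490 read; IC50 was fitted from growth inhibition versus 0.1% DMSO control.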

[2] = target: T2, various mutants of kinase EGFR (BaF3 cell lines stably transfected with kinase) (Homo sapiens, UniProt P00533, T790M, form not given)
T2 construct: other: BaF3 cells stably transfected with EGFR Δ19Del/T790M; MTS, 48 h; other: BaF3 cell line stably transfected with EGFR Δ19Del/T790M; MTS, 48
In short: as §1

[3] = target: T3, various mutants of kinase EGFR (BaF3 cell lines stably transfected with kinase) (Homo sapiens, UniProt P00533)
T3 construct: other: BaF3 cells stably transfected with EGFR Δ19Del; MTS, 48 h; other: BaF3 cell line stably transfected with EGFR Δ19Del
In short: as §1

[4] = target: T4, various mutants of kinase EGFR (BaF3 cell lines stably transfected with kinase) (Homo sapiens, UniProt P00533, L858R/T790M)
T4 construct: expressed in transfected cells; host or cells: BaF3
In short: as §1

[5] = target: T5, various mutants of kinase EGFR (BaF3 cell lines stably transfected with kinase) (Homo sapiens, UniProt P00533, T790M/C797S, form not given)
T5 construct: other: BaF3 cells stably transfected with EGFR Δ19Del/T790M/C797S; MTS, 48; other: BaF3 cell line stably transfected with EGFR Δ19Del/T790M/C7
In short: as §1

[6] = target: T6, various mutants of kinase EGFR (BaF3 cell lines stably transfected with kinase) (Homo sapiens, UniProt P00533, C797S/L858R/T790M)
T6 construct: expressed in transfected cells; host or cells: BaF3
In short: as §1

[7] = BaF3 cells stably transfected with EGFR L858R, read-out: IC50, growth inhibition, L858R
[8] = BaF3 cells stably transfected with EGFR Δ19Del/T790M, read-out: IC50, growth inhibition, Δ19Del/T790M
[9] = BaF3 cells stably transfected with EGFR Δ19Del, read-out: IC50, growth inhibition, Δ19Del
[10] = BaF3 cells stably transfected with EGFR L858R/T790M, read-out: IC50, growth inhibition, L858R/T790M
[11] = BaF3 cells stably transfected with EGFR Δ19Del/T790M/C797S, read-out: IC50, growth inhibition, Δ19Del/T790M/C797S
[12] = BaF3 cells stably transfected with EGFR L858R/T790M/C797S, read-out: IC50, growth inhibition, L858R/T790M/C797S
[13] = BaF3 cell line stably transfected with EGFR L858R, read-out: L858R growth inhibitory activity IC50
[14] = BaF3 cell line stably transfected with EGFR Δ19Del/T790M, read-out: Δ19Del/ T790M growth inhibitory activity IC50
[15] = BaF3 cell line stably transfected with EGFR Δ19Del, read-out: Δ19Del growth inhibitory activity IC50
[16] = BaF3 cell line stably transfected with EGFR L858R/T790M, read-out: L858R/ T790M growth inhibitory activity IC50
[17] = BaF3 cell line stably transfected with EGFR Δ19Del/T790M/C797S, read-out: Δ19Del/T790M/ C797S growth inhibitory activity IC50
[18] = BaF3 cell line stably transfected with EGFR L858R/T790M/C797S, read-out: L858R/T790M/ C797S growth inhibitory activity IC50

T2 sequence (P00533 with tags, fused parts or gaps DEL746-750/T790M, form open): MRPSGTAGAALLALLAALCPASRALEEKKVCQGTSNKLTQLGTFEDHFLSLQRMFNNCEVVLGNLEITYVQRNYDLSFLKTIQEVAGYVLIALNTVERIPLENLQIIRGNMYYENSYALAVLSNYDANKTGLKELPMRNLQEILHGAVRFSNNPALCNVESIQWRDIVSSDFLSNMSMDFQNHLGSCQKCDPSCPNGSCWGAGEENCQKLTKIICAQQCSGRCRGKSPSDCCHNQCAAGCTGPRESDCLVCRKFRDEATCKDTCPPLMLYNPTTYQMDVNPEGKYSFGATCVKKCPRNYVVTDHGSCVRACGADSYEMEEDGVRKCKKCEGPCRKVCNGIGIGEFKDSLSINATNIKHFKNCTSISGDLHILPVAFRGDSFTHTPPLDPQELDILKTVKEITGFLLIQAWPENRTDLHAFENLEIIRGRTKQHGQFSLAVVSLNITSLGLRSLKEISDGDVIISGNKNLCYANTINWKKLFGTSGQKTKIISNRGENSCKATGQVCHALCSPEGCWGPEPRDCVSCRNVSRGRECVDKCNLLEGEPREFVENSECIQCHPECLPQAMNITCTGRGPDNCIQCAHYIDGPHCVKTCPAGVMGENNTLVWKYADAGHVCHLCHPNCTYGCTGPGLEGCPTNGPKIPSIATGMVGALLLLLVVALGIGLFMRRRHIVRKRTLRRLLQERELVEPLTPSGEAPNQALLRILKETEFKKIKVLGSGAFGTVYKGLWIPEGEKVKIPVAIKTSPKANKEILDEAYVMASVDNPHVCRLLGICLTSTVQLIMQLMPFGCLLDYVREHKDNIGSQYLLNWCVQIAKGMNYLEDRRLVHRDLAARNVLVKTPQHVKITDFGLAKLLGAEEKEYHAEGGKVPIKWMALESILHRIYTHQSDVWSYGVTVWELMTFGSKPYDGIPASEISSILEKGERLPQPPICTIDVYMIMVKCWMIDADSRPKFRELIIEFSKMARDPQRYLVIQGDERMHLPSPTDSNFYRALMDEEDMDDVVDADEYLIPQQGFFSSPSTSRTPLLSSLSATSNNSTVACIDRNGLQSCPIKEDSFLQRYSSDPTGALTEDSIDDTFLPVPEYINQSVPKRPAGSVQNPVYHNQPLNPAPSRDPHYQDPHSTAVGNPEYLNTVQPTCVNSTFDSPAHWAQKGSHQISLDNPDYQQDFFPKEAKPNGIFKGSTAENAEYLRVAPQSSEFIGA
T3 sequence (P00533 with tags, fused parts or gaps DEL746-750): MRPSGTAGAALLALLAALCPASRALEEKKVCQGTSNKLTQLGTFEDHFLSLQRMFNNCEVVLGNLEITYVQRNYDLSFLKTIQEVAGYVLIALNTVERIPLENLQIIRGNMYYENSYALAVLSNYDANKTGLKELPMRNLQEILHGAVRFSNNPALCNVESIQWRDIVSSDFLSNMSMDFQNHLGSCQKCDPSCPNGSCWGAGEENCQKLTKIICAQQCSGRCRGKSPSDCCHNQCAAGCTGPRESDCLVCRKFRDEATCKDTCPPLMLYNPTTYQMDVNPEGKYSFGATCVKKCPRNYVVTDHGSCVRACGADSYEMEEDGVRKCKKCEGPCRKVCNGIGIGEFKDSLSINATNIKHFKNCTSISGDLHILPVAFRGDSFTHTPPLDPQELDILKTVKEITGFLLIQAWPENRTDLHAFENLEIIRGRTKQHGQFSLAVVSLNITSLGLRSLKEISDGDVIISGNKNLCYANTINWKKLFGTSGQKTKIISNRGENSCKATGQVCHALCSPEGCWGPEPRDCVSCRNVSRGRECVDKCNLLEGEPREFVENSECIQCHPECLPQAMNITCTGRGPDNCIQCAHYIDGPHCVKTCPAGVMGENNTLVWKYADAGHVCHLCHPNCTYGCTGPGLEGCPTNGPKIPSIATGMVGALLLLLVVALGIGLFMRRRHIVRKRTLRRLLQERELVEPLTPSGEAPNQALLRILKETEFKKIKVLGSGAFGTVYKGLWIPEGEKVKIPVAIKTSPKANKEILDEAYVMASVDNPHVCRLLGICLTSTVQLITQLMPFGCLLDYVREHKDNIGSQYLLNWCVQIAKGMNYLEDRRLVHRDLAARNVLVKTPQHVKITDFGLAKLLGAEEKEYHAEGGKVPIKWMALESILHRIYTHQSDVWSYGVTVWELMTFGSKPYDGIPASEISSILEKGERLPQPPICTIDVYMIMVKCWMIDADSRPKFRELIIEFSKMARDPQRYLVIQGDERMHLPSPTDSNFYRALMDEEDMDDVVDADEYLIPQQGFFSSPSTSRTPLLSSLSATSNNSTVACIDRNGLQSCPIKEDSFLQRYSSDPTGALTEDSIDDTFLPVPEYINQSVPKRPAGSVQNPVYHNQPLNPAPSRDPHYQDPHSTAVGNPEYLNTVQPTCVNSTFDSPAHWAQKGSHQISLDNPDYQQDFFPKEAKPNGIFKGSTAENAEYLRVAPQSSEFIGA
T4 sequence (P00533 25-1210 T790M/L858R): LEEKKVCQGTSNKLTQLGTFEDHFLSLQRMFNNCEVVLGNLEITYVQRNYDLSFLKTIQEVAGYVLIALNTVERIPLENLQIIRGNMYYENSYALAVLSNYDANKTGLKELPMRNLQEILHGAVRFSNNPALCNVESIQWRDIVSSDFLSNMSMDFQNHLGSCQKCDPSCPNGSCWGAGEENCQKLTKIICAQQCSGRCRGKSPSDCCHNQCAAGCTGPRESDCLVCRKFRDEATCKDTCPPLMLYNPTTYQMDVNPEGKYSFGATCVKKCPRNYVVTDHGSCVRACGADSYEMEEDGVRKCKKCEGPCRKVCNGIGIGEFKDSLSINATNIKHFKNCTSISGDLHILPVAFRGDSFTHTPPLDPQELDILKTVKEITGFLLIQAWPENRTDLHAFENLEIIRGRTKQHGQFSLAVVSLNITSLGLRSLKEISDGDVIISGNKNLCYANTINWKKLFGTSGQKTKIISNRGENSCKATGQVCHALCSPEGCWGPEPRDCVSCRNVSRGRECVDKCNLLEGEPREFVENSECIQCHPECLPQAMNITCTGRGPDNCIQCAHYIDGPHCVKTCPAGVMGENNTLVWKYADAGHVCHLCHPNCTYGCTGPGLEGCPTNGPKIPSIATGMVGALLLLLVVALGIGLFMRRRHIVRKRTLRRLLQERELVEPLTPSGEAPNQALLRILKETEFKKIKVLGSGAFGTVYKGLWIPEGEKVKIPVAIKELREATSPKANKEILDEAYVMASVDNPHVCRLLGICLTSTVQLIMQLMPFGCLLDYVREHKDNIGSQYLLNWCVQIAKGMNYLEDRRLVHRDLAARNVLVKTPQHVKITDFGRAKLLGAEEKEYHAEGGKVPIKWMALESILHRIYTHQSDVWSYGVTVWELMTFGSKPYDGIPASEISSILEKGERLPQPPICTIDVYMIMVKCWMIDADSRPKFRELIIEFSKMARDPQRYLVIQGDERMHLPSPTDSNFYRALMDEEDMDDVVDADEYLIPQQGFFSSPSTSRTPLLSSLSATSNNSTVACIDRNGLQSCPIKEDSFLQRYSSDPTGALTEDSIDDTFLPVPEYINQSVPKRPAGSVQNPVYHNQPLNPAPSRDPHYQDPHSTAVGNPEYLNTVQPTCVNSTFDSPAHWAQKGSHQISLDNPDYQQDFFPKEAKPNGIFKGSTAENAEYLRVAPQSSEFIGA
T5 sequence (P00533 with tags, fused parts or gaps DEL746-750/T790M/C797S, form open): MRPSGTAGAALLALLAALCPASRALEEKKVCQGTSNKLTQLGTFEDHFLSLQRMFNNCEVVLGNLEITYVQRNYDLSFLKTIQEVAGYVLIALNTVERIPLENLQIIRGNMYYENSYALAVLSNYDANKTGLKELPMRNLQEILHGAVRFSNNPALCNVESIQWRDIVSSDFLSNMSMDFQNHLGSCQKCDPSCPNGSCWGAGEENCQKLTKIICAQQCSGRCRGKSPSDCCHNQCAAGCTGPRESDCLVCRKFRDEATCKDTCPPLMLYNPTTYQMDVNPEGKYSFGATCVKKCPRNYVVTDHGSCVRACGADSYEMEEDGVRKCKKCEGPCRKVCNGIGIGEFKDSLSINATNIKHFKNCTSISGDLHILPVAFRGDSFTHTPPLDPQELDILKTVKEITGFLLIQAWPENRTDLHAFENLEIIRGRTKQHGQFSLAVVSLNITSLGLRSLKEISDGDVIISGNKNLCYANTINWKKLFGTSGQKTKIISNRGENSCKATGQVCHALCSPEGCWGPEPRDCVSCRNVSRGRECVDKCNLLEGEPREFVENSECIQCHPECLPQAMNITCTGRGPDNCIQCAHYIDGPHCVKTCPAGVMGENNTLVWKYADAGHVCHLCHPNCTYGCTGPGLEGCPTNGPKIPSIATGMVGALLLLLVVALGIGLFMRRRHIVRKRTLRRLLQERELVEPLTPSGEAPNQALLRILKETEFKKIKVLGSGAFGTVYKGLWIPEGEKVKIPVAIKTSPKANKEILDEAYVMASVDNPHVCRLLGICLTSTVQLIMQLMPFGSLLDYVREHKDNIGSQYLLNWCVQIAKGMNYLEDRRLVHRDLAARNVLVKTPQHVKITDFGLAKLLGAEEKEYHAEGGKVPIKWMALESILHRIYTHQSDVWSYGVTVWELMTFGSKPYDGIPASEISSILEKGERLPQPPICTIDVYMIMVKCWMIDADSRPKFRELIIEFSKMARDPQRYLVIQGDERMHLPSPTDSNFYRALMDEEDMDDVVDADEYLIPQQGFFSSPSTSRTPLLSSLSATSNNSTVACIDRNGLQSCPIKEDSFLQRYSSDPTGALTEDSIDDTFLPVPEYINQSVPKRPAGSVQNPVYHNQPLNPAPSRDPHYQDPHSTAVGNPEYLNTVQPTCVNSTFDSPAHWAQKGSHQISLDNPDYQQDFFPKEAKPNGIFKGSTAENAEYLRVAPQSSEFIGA

Row | IC50 [1, 7] [nM] | IC50 [2, 8] [nM] | IC50 [3, 9] [nM] | IC50 [4, 10] [nM] | IC50 [5, 11] [nM] | IC50 [6, 12] [nM] | IC50 [1, 13] [nM] | IC50 [2, 14] [nM] | IC50 [3, 15] [nM] | IC50 [4, 16] [nM] | IC50 [5, 17] [nM] | IC50 [6, 18] [nM] | SMILES
1 | ≤ 50 | 50 to 500 | ≤ 50 | ≤ 50 | ≤ 50 | 50 to 500 |  |  |  |  |  |  | COc1cc(N2CCC(N3CCN(C)CC3)CC2)c(C)cc1Nc1ncc(F)c(Nc2ccc3nccnc3c2N(C)S(=O)(=O)C2CC2)n1 [Compound I-248]
2 |  |  |  |  |  |  | 500 to 2500 | 500 to 2500 | 500 to 2500 | 500 to 2500 | 50 to 500 | 500 to 2500 | COc1cc(N2CCC(N(C)C)CC2)c(C)cc1Nc1nc(Nc2ccc3nccnc3c2N(C)S(C)(=O)=O)c2[nH]ccc2n1 [II-1-31]
3 | ≤ 50 | ≤ 50 | ≤ 50 | ≤ 50 | ≤ 50 | ≤ 50 |  |  |  |  |  |  | CCc1cc(Nc2ncc(Br)c(Nc3ccc4nccnc4c3N(C)S(=O)(=O)CC)n2)c(OC)cc1N1CCC(N2CCN(C)CC2)CC1 [Compound I-100]
4 | 500 to 2500 | 500 to 2500 | 50 to 500 | 500 to 2500 | 500 to 2500 | 50 to 500 |  |  |  |  |  |  | CN1CCc2cc(OC(F)(F)F)c(Nc3ncc(Br)c(Nc4ccc5nccnc5c4N(C)S(C)(=O)=O)n3)cc2C1 [Compound I-90]
5 | 50 to 500 | ≤ 50 | 50 to 500 | ≤ 50 | ≤ 50 | ≤ 50 |  |  |  |  |  |  | COc1cc(N2CCN(C)CC2)c(C)cc1Nc1ncc(C(F)(F)F)c(Nc2ccc3nccnc3c2N(C)S(C)(=O)=O)n1 [Compound I-207]
6 |  |  |  |  |  |  | 500 to 2500 | 50 to 500 | 500 to 2500 | 50 to 500 | 50 to 500 | 50 to 500 | CC(C)n1ccc(Nc2ncc(Br)c(Nc3ccc4nccnc4c3N(C)S(C)(=O)=O)n2)n1 [Compound I-384]
7 | ≤ 50 | ≤ 50 | 50 to 500 | ≤ 50 | ≤ 50 | ≤ 50 |  |  |  |  |  |  | CCc1cc(Nc2ncc(C(F)(F)F)c(Nc3ccc4nccnc4c3N(C)S(C)(=O)=O)n2)c(OC)nc1N1CCC(N2CCN(C)CC2)CC1 [Compound I-199]
8 |  |  |  |  |  |  | ≤ 50 | ≤ 50 | ≤ 50 | ≤ 50 | ≤ 50 | ≤ 50 | CCc1cnc(Nc2cc(CC)c(N3CCC(N4CCN(C)CC4)CC3)nc2OC)nc1Nc1ccc2nccnc2c1N(C)S(C)(=O)=O [Compound I-320]
9 | 500 to 2500 | 50 to 500 | 500 to 2500 | 50 to 500 | ≤ 50 | 50 to 500 |  |  |  |  |  |  | COc1cc(N2CCC(N3CCN(C)CC3)CC2)c(C)cc1Nc1ncc(Br)c(Nc2ccc3nccnc3c2N(C)S(=O)(=O)C(F)(F)F)n1 [Compound I-124]
10 | ≤ 50 | ≤ 50 | 50 to 500 | ≤ 50 | ≤ 50 | ≤ 50 |  |  |  |  |  |  | CCc1cc(Nc2ncc(Br)c(Nc3ccc4nccnc4c3N(CC)S(C)(=O)=O)n2)c(OC)cc1N1CCN(C)CC1 [Compound I-301]
11 | 50 to 500 | ≤ 50 | 50 to 500 | ≤ 50 | ≤ 50 | ≤ 50 |  |  |  |  |  |  | C=Cc1cc(Nc2ncc(Cl)c(Nc3ccc4nccnc4c3N(CC)S(C)(=O)=O)n2)c(OC(F)(F)F)cc1N1CCC(N2CCN(C)CC2)CC1 [Compound I-228]
12 | ≤ 50 | 50 to 500 | ≤ 50 | ≤ 50 | ≤ 50 | ≤ 50 |  |  |  |  |  |  | COc1cc(N2CCC(N3CCN(C)CC3)CC2)c(C)cc1Nc1ncc(F)c(Nc2ccc3nccnc3c2N(C)S(C)(=O)=O)n1 [Compound I-25]
13 | 50 to 500 | ≤ 50 | 50 to 500 | ≤ 50 | ≤ 50 | ≤ 50 |  |  |  |  |  |  | CCc1cc(Nc2ncc(Br)c(Nc3ccc4nccnc4c3N(C)S(=O)(=O)C(C)C)n2)c(OC)cc1N1CCC(N2CCN(C)CC2)CC1 [Compound I-135]
14 |  |  |  |  |  |  | ≤ 50 | ≤ 50 | ≤ 50 | ≤ 50 | ≤ 50 | ≤ 50 | CCc1cc(Nc2ncc(C(C)C)c(Nc3ccc4nccnc4c3N(C)S(C)(=O)=O)n2)c(OC)cc1N1CCC(N(C)C)CC1 [Compound I-330]
15 |  |  |  |  |  |  | 500 to 2500 | 500 to 2500 | 500 to 2500 | 500 to 2500 | 500 to 2500 | 50 to 500 | CCc1cc(Nc2ncc(Br)c(Nc3ccc4nccnc4c3N(C)S(C)(=O)=O)n2)c(OC)cc1F [Compound I-389]
16 | ≤ 50 | ≤ 50 | 50 to 500 | ≤ 50 | ≤ 50 | ≤ 50 |  |  |  |  |  |  | COc1cc(N2CCC(N3CCN(C)CC3)CC2)c(CC2CC2)cc1Nc1ncc(Cl)c(Nc2ccc3nccnc3c2N(C)S(C)(=O)=O)n1 [Compound I-167]
17 |  |  |  |  |  |  | 500 to 2500 | 50 to 500 | 50 to 500 | ≤ 50 | ≤ 50 | 50 to 500 | COc1cc(N2CCC(N3CCN(C)CC3)CC2)ccc1Nc1nc(Nc2ccc3nccnc3c2N(C)S(C)(=O)=O)c2cc[nH]c2n1 [II-2-22]
18 | 50 to 500 | 50 to 500 | 50 to 500 | 50 to 500 | ≤ 50 | 50 to 500 |  |  |  |  |  |  | COc1cc(N2CCC(N3CCN(C)CC3)CC2)c(CC2CC2)cc1Nc1ncc(Cl)c(Nc2ccc3nccnc3c2N(C)S(=O)(=O)C2CC2)n1 [Compound I-238]
19 | ≤ 50 | 50 to 500 | 50 to 500 | 50 to 500 | ≤ 50 | ≤ 50 |  |  |  |  |  |  | CCc1cc(Nc2ncc(F)c(Nc3ccc4nccnc4c3N(C)S(C)(=O)=O)n2)c(OC)cc1N1CCN(C)CC1 [Compound I-186]
20 |  |  |  |  |  |  | 50 to 500 | 50 to 500 | 50 to 500 | 50 to 500 | ≤ 50 | ≤ 50 | COc1ccc(N2CCC(O)CC2)cc1Nc1ncc(Cl)c(Nc2ccc3nccnc3c2N(C)S(=O)(=O)C2CC2)n1 [Compound I-374]
21 |  |  |  |  |  |  | ≤ 50 | ≤ 50 | ≤ 50 | ≤ 50 | ≤ 50 | ≤ 50 | CN1CCN(C2CCN(c3ccc(Nc4ncc(Br)c(Nc5ccc6nccnc6c5NS(C)(=O)=O)n4)c(F)c3F)CC2)CC1 [Compound I-359]
22 | 50 to 500 | 50 to 500 | 50 to 500 | 50 to 500 | ≤ 50 | 50 to 500 |  |  |  |  |  |  | C=Cc1cc(Nc2ncc(Cl)c(Nc3ccc4nccnc4c3N(C)S(=O)(=O)CC)n2)c(OC(F)(F)F)cc1N1CCC(N2CCN(C)CC2)CC1 [Compound I-295]
23 | 50 to 500 | 50 to 500 | 50 to 500 | 50 to 500 | 50 to 500 | ≤ 50 |  |  |  |  |  |  | CCc1cc(Nc2ncc(C#N)c(Nc3ccc4nccnc4c3N(C)S(C)(=O)=O)n2)c(OC)cc1N1CCC(N2CCN(C)CC2)CC1 [Compound I-29]
24 |  |  |  |  |  |  | ≤ 50 | ≤ 50 | ≤ 50 | ≤ 50 | ≤ 50 | ≤ 50 | COc1ccc(N2CCC(O)CC2)cc1Nc1ncc(Cl)c(Nc2ccc3nccnc3c2N(C2CC2)S(C)(=O)=O)n1 [Compound I-379]
25 | 50 to 500 | ≤ 50 | 50 to 500 | ≤ 50 | ≤ 50 | ≤ 50 |  |  |  |  |  |  | COc1cc(N2CCC(N3CCN(C)CC3)CC2)ccc1Nc1ncc(Br)c(Nc2ccc3nccnc3c2N(C2CC2)S(C)(=O)=O)n1 [Compound I-223]
26 |  |  |  |  |  |  | 50 to 500 | 50 to 500 | 50 to 500 | 50 to 500 | 50 to 500 | 50 to 500 | COc1cc(N2CCC(N3CCN(C)CC3)CC2)c(C)cc1Nc1ncc(C(C)C)c(Nc2ccc3nccnc3c2N(C)S(C)(=O)=O)n1 [Compound I-326]
